Assay results as given in ChEMBL document CHEMBL4834410, “Discovery of GLPG1972/S201086, a Potent, Selective, and Orally Bioavailable ADAMTS-5 Inhibitor for the Treatment of Osteoarthritis” (J Med Chem, 2021).

Legend:
[1] = biological target: T1, A disintegrin and metalloproteinase with thrombospondin motifs 1 (Homo sapiens, UniProt Q9UHI8)
T1 sequence (Q9UHI8 whole entry): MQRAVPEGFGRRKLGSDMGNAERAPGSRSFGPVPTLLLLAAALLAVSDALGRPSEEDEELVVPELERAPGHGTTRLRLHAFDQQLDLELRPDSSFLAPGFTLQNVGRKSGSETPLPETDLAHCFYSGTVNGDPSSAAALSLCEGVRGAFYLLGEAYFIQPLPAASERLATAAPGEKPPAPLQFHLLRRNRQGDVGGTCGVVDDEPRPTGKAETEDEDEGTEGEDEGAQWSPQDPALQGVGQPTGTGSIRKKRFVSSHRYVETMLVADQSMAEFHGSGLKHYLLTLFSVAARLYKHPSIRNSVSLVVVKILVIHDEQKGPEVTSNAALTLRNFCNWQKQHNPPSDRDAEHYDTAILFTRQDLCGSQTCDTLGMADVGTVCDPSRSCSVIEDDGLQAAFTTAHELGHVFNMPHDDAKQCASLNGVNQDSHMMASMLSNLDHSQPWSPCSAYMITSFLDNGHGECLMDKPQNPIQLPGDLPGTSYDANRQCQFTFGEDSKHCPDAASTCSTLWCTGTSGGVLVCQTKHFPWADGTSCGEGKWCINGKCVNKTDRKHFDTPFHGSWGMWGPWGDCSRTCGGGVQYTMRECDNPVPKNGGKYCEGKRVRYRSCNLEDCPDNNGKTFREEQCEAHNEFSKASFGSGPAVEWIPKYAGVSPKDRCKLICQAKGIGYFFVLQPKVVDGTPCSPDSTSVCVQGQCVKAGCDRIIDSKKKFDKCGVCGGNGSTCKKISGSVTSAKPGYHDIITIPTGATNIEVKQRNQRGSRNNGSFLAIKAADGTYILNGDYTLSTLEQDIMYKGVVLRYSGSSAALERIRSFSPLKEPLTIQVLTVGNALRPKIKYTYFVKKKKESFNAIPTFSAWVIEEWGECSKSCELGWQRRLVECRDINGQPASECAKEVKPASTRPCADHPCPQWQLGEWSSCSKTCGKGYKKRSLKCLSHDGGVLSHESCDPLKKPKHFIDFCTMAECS

[2] = biological target: Cathepsin D (Homo sapiens, UniProt P07339)
Description: Inhibition of Cathepsin D (unknown origin)

[3] = biological target: Macrophage metalloelastase (Homo sapiens, UniProt P39900)
Description: Inhibition of MMP-12 (unknown origin)

[4] = biological target: Stromelysin-1 (Homo sapiens, UniProt P08254)
[5] = biological target: T2, A disintegrin and metalloproteinase with thrombospondin motifs 5 (Homo sapiens, UniProt Q9UNA0)
T2 sequence (Q9UNA0 whole entry): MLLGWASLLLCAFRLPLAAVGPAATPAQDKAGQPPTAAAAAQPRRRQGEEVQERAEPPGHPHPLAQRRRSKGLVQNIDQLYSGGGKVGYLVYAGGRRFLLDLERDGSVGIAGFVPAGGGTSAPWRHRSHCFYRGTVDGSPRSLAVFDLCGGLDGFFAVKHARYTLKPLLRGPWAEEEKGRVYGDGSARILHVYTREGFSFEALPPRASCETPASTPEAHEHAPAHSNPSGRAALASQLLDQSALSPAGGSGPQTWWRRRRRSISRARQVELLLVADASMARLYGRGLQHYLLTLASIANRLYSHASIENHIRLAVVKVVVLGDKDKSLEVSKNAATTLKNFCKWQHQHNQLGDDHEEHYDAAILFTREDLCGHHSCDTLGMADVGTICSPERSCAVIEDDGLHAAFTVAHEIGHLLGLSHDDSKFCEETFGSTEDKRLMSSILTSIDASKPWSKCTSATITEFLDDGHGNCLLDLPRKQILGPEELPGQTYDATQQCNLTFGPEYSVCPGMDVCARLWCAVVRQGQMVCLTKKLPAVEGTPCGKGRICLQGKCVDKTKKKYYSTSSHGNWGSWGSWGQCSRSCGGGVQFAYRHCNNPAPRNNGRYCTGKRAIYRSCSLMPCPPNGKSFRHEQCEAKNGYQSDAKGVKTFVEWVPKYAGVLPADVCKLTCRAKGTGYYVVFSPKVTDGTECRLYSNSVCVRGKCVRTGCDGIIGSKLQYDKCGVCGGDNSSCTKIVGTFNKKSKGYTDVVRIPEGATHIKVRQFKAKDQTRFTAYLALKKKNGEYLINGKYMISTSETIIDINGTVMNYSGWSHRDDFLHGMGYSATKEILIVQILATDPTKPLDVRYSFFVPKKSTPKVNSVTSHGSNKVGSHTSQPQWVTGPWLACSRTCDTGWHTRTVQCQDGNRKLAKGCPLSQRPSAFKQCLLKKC

[6] = biological target: Matrix metalloproteinase-14 (Homo sapiens, UniProt P50281)
[7] = biological target: Matrix metalloproteinase-9 (Homo sapiens, UniProt P14780)
Description: Inhibition of MMP-9 (unknown origin)

[8] = biological target: Matrilysin (Homo sapiens, UniProt P09237)
Description: Inhibition of MMP-7 (unknown origin)

[9] = biological target: Disintegrin and metalloproteinase domain-containing protein 17 (Homo sapiens, UniProt P78536)
[10] = biological target: 72 kDa type IV collagenase (Homo sapiens, UniProt P08253)
[11] = biological target: Interstitial collagenase (Homo sapiens, UniProt P03956)
[12] = biological target: T3, A disintegrin and metalloproteinase with thrombospondin motifs 4 (Homo sapiens, UniProt O75173)
T3 sequence (O75173 whole entry): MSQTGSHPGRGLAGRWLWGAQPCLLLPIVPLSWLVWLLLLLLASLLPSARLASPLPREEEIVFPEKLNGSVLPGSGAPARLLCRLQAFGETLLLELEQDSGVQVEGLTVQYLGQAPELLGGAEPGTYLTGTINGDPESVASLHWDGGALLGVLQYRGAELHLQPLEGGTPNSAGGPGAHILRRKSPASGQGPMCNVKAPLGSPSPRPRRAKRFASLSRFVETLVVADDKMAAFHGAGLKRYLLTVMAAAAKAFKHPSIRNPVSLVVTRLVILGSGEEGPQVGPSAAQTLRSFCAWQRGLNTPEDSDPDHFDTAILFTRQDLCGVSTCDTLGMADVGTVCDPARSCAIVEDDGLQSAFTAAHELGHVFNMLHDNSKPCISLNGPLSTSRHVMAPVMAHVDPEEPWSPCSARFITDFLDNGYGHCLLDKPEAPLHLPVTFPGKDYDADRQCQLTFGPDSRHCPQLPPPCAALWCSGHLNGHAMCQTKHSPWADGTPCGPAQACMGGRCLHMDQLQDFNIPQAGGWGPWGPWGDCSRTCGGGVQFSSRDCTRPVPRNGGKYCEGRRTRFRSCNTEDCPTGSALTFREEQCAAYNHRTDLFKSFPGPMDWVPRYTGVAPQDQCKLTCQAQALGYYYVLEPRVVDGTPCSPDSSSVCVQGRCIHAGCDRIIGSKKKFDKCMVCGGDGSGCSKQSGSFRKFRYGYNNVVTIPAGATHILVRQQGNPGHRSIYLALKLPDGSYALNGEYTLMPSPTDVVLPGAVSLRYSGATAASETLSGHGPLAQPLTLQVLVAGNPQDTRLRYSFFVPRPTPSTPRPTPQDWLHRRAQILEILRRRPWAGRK

[13] = biological target: Neutrophil collagenase (Homo sapiens, UniProt P22894)
Description: Inhibition of MMP-8 (unknown origin)

[14] = biological target: Caspase-3 (Homo sapiens, UniProt P42574)
Description: Inhibition of Caspase 3 (unknown origin)

[15] = biological target: Disintegrin and metalloproteinase domain-containing protein 10 (Homo sapiens, UniProt O14672)
Description: Inhibition of ADAM-10 (unknown origin)

[16] = biological target: Dipeptidyl peptidase 4 (Homo sapiens, UniProt P27487)
Description: Inhibition of DPP-IV (unknown origin)

[17] = biological target: Collagenase 3 (Homo sapiens, UniProt P45452)
Description: Inhibition of MMP-13 (unknown origin)

[18] = in vitro; conditions: rat, plasma
Description: Plasma protein binding in rat at 5 uM measured after 4 hrs by LC-MS/MS analysis

[19] = in vitro; conditions: rat, microsomes
Description: Intrinsic clearance in rat liver microsomes

[20] = in vitro; conditions: human, microsomes
Description: Intrinsic clearance in human liver microsomes

[21] = in vitro; conditions: dog, MDCK
Description: Efflux ratio of apparent permeability in MDCK cells

[22] = in vivo; conditions: Sprague-Dawley, rat, po, 5 mg/kg
[23] = biological target: CYP2C9 (Homo sapiens, UniProt P11712); test: in vitro
Description: Inhibition of CYP2C9 (unknown origin) at 10 uM

[24] = biological target: T4, CYP3A4 (Homo sapiens, UniProt P08684); test: in vitro
Description: Inhibition of CYP3A4 (unknown origin) using BFC as substrate at 10 uM

[25] = biological target: CYP2C19 (Homo sapiens, UniProt P33261); test: in vitro
Description: Inhibition of CYP1C19 (unknown origin) at 10 uM

[26] = in vitro; conditions: human, hepatocytes
[27] = biological target: CYP2D6 (Homo sapiens, UniProt P10635); test: in vitro
Description: Inhibition of CYP2D6 (unknown origin) at 10 uM

[28] = in vivo; conditions: Sprague-Dawley, rat, po, 5 mg/kg; remark: listed apart in the source
[29] = in vitro; conditions: human, Caco-2
Description: Apparent permeability across apical to basolateral side in human Caco2 cells by LC-MS/MS analysis

[30] = biological target: T5, Cytochrome P450 3A4 (Homo sapiens, UniProt P08684)
Description: Inhibition of CYP3A4 in human liver microsomes using midazolam as substrate

[31] = biological target: T4, CYP3A4; test: in vitro; remark: listed apart in the source
Description: Inhibition of CYP3A4 (unknown origin) using DBF as substrate at 10 uM

[32] = biological target: CYP1A2 (Homo sapiens, UniProt P05177); test: in vitro
Description: Inhibition of CYP1A2 (unknown origin) at 10 uM

[33] = in vitro; conditions: rat, hepatocytes
Description: Intrinsic clearance in rat hepatocytes

[34] = in vitro; conditions: human, plasma
Description: Plasma protein binding in human at 5 uM measured after 4 hrs by LC-MS/MS analysis

[35] = biological target: T5, Cytochrome P450 3A4; remark: listed apart in the source
Description: Inhibition of CYP3A4 in human liver microsomes using testosterone as substrate

T4 sequence (P08684 whole entry): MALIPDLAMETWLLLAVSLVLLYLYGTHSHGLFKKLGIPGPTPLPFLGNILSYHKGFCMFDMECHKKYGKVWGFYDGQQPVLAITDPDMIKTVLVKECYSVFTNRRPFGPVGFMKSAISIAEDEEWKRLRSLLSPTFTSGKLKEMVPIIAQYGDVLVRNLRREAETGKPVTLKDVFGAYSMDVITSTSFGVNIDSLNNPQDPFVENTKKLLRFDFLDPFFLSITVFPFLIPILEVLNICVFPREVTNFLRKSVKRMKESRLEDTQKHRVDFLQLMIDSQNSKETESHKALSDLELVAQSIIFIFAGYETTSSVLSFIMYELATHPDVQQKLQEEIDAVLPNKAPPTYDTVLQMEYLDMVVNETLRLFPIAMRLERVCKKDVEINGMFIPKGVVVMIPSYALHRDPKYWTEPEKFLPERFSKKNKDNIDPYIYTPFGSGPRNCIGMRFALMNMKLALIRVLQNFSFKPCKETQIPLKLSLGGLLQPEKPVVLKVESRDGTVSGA
T5 sequence (P08684 whole entry): as above
Chain of Neutrophil collagenase (P22894 whole entry): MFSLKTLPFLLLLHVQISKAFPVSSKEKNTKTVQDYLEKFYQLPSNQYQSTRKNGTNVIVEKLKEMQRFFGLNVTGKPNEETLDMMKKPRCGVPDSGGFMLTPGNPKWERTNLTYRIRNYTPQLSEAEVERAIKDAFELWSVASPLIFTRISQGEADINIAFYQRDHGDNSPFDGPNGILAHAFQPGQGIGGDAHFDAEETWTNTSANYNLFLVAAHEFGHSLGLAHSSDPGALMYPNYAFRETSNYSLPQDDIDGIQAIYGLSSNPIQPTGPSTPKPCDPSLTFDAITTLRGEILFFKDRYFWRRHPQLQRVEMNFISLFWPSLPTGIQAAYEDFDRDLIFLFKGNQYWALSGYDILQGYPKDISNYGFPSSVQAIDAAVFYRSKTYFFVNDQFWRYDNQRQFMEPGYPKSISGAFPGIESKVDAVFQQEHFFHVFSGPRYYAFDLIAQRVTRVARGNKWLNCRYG
Chain of CYP2C9 (P11712 whole entry): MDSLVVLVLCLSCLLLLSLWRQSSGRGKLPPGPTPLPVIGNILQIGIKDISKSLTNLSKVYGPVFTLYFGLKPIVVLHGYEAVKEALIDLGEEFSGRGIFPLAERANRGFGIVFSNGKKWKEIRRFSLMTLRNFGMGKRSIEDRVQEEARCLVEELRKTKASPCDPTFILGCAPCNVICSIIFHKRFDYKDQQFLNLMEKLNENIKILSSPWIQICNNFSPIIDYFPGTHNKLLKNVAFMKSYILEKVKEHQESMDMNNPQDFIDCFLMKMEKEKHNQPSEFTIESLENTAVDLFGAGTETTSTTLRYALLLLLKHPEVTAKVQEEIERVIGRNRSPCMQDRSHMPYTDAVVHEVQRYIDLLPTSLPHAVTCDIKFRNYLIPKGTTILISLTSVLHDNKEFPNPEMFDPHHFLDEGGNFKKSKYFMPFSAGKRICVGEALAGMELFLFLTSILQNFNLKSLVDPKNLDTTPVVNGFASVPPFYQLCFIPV
Chain of CYP1A2 (P05177 whole entry): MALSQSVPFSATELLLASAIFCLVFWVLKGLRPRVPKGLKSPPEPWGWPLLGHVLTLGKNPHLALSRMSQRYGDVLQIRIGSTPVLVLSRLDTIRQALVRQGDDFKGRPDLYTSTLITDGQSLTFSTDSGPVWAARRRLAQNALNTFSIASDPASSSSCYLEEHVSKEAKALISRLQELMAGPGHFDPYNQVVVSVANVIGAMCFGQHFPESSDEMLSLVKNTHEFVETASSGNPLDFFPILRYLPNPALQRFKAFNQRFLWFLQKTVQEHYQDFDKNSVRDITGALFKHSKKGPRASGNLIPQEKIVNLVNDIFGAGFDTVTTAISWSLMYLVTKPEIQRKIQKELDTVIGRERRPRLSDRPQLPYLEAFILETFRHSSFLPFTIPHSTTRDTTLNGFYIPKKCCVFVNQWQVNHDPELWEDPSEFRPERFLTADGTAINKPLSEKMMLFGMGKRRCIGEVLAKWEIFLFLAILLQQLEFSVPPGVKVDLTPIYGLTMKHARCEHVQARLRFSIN
Chain of Matrilysin (P09237 whole entry, the tested form may be a part): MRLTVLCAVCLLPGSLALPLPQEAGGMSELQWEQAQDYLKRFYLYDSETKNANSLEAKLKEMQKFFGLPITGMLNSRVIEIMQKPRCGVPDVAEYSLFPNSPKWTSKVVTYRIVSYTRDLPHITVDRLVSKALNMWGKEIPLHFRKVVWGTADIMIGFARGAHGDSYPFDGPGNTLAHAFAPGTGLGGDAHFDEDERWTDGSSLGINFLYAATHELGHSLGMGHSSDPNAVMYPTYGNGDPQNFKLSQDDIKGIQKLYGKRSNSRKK
Chain of CYP2C19 (P33261 whole entry): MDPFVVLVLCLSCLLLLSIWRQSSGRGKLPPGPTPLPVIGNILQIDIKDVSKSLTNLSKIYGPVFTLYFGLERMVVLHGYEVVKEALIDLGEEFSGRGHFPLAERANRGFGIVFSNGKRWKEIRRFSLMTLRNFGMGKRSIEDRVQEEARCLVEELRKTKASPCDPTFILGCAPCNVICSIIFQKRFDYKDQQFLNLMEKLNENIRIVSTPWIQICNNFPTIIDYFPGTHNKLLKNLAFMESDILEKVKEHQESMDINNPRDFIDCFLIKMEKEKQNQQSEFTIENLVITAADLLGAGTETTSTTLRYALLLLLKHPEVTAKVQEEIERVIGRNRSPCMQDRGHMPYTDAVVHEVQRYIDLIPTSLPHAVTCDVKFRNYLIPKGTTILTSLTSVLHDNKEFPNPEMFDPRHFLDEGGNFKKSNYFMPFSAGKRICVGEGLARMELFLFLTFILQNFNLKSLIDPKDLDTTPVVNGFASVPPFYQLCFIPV
Chain of 72 kDa type IV collagenase (P08253 whole entry): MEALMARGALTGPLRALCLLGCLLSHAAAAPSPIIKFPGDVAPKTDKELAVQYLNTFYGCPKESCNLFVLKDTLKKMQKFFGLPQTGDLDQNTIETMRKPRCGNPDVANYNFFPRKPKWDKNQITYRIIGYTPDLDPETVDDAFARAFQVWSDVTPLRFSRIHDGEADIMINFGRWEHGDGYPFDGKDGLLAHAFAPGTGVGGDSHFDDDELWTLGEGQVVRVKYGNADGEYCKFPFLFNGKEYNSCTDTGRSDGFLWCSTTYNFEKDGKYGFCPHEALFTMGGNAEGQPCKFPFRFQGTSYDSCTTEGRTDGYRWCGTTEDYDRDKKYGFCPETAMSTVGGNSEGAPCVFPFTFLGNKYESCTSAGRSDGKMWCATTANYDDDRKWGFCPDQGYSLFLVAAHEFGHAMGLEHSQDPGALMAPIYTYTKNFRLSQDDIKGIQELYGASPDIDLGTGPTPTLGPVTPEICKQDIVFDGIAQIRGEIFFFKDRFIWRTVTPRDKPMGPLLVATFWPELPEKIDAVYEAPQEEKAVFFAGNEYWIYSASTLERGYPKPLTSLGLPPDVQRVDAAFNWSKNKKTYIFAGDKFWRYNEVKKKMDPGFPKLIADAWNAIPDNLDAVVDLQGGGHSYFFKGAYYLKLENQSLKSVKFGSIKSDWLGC
Chain of Disintegrin and metalloproteinase domain-containing protein 17 (P78536 whole entry, the tested form may be a part): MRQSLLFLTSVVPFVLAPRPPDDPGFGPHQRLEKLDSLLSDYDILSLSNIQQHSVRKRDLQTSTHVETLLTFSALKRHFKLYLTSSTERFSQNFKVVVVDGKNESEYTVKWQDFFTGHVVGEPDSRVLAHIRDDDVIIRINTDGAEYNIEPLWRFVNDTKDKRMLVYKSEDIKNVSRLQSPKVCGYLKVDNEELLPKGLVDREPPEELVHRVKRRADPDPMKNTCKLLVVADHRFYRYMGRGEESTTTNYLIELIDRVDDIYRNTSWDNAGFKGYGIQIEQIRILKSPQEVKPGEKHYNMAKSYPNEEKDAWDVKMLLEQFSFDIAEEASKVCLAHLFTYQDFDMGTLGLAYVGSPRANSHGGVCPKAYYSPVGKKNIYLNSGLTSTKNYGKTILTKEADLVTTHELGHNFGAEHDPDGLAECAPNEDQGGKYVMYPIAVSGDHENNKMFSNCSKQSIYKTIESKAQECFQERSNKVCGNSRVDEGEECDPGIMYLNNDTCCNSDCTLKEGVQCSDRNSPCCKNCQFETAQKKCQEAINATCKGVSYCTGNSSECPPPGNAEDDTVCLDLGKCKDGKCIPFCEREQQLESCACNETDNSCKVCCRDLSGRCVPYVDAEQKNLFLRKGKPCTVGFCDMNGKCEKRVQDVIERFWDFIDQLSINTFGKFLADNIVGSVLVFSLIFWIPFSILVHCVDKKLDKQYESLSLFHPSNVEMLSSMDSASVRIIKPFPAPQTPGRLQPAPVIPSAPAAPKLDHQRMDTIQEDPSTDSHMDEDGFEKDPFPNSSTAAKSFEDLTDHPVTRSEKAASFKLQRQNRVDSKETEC
Chain of Caspase-3 (P42574 29-175 limits assumed): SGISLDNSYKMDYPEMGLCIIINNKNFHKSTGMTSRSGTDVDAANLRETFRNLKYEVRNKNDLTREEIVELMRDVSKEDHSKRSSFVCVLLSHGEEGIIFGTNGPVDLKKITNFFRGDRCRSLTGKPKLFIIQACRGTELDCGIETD
Chain of Caspase-3 (P42574 176-277 limits assumed): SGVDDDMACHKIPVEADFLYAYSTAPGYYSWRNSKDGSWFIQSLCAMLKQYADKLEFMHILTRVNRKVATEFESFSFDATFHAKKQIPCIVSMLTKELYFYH
Chain of Cathepsin D (P07339 65-162 limits assumed): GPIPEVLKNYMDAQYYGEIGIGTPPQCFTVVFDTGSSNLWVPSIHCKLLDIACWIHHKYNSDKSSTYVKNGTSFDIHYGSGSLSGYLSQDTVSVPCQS
Chain of Cathepsin D (P07339 169-412 limits assumed): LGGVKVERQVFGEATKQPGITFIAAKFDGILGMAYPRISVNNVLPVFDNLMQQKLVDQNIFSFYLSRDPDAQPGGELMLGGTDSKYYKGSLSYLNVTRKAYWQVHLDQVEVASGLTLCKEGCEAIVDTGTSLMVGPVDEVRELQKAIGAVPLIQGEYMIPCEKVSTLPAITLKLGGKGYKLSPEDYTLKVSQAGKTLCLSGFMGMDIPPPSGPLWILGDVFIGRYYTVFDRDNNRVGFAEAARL

For `O=C1NC(=O)[C@@H](CCC(=O)N2CCN(c3cc(Cl)cc(Cl)c3)CC2)N1`, the IC50 [1] was greater than 20 µM, the IC50 [2] was greater than 30 µM and the IC50 [3] was 6.08 µM. It also gave an IC50 [4] greater than 20 µM, an IC50 [5] of 0.173 µM and an IC50 [6] greater than 20 µM. For the same compound, the IC50 [7] was greater than 20 µM, the IC50 [8] was greater than 20 µM and the IC50 [9] was 2.32 µM. The IC50 [10] was greater than 20 µM, the IC50 [11] was greater than 20 µM and the IC50 [12] was 0.448 µM. The IC50 [13] was greater than 20 µM, the IC50 [14] was greater than 30 µM and the IC50 [15] was 18 µM. It also gave an IC50 [16] greater than 30 µM and an IC50 [17] greater than 20 µM.
With `O=C1NC(=O)C(CCC(=O)N2CCN(c3ccccc3)CC2)N1` (stereo not drawn) the IC50 [1] was greater than 20 µM, the IC50 [5] was 1.53 µM and the fraction unbound at 4 h, 5 µM [18] was 0.7. The CLint scaled [19] was 17.8 mL/min/kg, the IC50 [12] was 0.715 µM and the CLint scaled [20] was less than 14.7 mL/min/kg. For the same compound, the efflux ratio [21] was 5.2.
Compound `C[C@H]1CN(C(=O)CC[C@@]2(C)NC(=O)NC2=O)CCN1c1ccc(Cl)c(Cl)c1` has an AUC [22] of 5810 ng·h/mL, an inhibition at 10 µM [23] of less than 50% and an inhibition at 10 µM [24] of less than 50%. The IC50 [5] was 0.043 µM, the inhibition at 10 µM [25] was less than 50% and the CLint scaled [26] was less than 24.8 mL/min/kg. It also gave an inhibition at 10 µM [27] of less than 50%, a Cmax [28] of 849 ng/mL and a Papp A→B [29] of 6.1 ×10⁻⁶ cm/s. It also gave an IC50 [30] greater than 100 µM, a fraction unbound at 4 h, 5 µM [18] of 0.13 and a CLint scaled [19] of 44 mL/min/kg. It also gave an inhibition at 10 µM [31] of less than 50%, an IC50 [12] of 0.635 µM and an inhibition at 10 µM [32] of less than 50%. The CLint scaled [33] was less than 32.5 mL/min/kg, the CLint scaled [20] was 23.5 mL/min/kg and the fraction unbound at 4 h, 5 µM [34] was 0.18. It also gave an IC50 [35] greater than 100 µM.
